# What was measured:
# [1] = target: T1, rat δ (C6-DOR) opioid receptor (Rattus norvegicus, UniProt P33533); assay: Radioligand binding assay, [3H]diprenorphine displacement, DOR; conditions: displacement of 0.2 nM [3H]diprenorphine, C6-DOR membranes; mean ± standard error
# T1 construct: expressed in transfected cells
# Summary of the method: (§1)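 Membranes (20 μg protein) from C6 cells expressing rat μ or δ, or CHO cells expressing human κ receptor, incubated 1 h at room temperature with 0.2 nM [3H]diprenorphine and test peptide in 50 mM Tris-HCl pH 7.4. Filtration, scintillation counting; nonspecific binding with 10 μM naloxone; Ki by logistic nonlinear regression.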
# [2] = target: T2, human κ (CHO-KOR) opioid receptor (Homo sapiens, UniProt P41145); assay: Radioligand binding assay, [3H]diprenorphine displacement, KOR; conditions: displacement of 0.2 nM [3H]diprenorphine, CHO-KOR membranes; mean ± standard error
# T2 construct: expressed in transfected cells
# Summary of the method: as §1
# [3] = target: T3, rat μ (C6-MOR) opioid receptor (Rattus norvegicus, UniProt P33535); assay: Radioligand binding assay, [3H]diprenorphine displacement, MOR; conditions: displacement of 0.2 nM [3H]diprenorphine, C6-MOR membranes; mean ± standard error
# T3 construct: expressed in transfected cells
# Summary of the method: as §1
# [4] = target: T2, human κ (CHO-KOR) opioid receptor; assay: Stimulation of [35S]GTPγS binding, KOR; type: biochemical; conditions: for EC50 / EC50 (nm) KOR: [35S]GTPγS binding, CHO-KOR membranes, mean ± standard error; for Emax / % stimulation KOR: [35S]GTPγS maximal stimulation compared with 10 μM standard U-69,593
# Summary of the method: (§2)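 Membranes (10–20 μg protein) from C6 glioma cells expressing rat MOR or DOR, or CHO cells expressing human KOR, were incubated 1 h at room temperature with 0.1 nM [35S]GTPγS, 30 μM GDP and test peptides in Tris buffer pH 7.4. Bound label was filtered and counted; maximal stimulation, by nonlinear regression, was relative to 10 μM DAMGO (MOR), DPDPE (DOR) or U69,593 (KOR).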
# [5] = target: T1, rat δ (C6-DOR) opioid receptor; assay: Stimulation of [35S]GTPγS binding, DOR; type: biochemical; conditions: for EC50 / EC50 (nm) DOR: [35S]GTPγS binding, C6-DOR membranes, mean ± standard error; for Emax / % stimulation DOR: [35S]GTPγS maximal stimulation compared with 10 μM standard DPDPE
# Summary of the method: as §2
# [6] = target: T3, rat μ (C6-MOR) opioid receptor; assay: Stimulation of [35S]GTPγS binding, MOR; type: biochemical
# Summary of the method: as §2
# [7] = [35S]GTPγS binding, C6-MOR membranes, mean ± standard error
# [8] = [35S]GTPγS maximal stimulation compared with 10 μM standard DAMGO
# T2 sequence (P41145 whole entry): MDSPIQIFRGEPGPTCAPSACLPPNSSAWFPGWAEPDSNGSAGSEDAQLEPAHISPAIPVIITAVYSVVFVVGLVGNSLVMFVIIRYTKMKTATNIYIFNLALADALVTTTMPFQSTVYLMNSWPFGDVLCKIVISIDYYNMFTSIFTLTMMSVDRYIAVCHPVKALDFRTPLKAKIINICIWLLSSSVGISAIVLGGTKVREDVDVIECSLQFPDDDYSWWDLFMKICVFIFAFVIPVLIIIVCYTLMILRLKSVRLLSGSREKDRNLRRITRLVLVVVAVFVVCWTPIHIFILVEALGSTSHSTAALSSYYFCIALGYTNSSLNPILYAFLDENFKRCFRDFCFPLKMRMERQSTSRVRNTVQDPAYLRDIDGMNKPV
# T1 sequence (P33533 whole entry): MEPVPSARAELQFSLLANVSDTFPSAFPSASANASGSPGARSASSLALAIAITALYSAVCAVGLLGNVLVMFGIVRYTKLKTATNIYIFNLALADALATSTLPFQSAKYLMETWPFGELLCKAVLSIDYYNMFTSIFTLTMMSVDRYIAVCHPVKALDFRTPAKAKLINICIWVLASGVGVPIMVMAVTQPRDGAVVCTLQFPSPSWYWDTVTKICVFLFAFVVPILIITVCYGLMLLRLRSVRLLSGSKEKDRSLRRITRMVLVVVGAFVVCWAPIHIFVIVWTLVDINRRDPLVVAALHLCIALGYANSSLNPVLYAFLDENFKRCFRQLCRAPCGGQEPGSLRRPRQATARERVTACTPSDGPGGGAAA
# T3 sequence (P33535 whole entry): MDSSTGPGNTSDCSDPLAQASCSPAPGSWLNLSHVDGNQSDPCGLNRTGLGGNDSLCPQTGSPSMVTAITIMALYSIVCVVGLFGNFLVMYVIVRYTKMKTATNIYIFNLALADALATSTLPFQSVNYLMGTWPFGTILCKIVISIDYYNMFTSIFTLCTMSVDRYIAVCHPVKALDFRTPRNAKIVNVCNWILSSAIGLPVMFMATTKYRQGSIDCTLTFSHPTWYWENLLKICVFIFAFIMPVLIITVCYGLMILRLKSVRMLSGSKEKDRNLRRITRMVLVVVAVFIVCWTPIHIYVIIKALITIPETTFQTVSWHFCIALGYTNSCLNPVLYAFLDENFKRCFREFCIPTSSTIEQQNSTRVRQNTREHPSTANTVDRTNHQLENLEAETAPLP
Structure (SMILES),Ki [1],Ki [2],Ki [3],EC50 [4],Emax [4],EC50 [5],Emax [5],"EC50 [6, 7]","Emax [6, 8]",EC50 (nm) DOR [5],% stimulation DOR [5],"EC50 (nm) MOR [6, 7]","% stimulation MOR [6, 8]",EC50 (nm) KOR [4],% stimulation KOR [4]
CC(=O)N1CC[C@@H](NC(=O)[C@@H](N)Cc2c(C)cc(O)cc2C)c2cc(Cc3ccccc3)cc(C)c21 [Compound 1055],1.88 ± 0.53 nM,80 ± 20 nM,0.18 ± 0.04 nM,930 ± 600 nM,32 ± 2%,384 ± 296 nM,30 ± 3%,7.05 ± 2.32 nM,86 ± 3%,–,–,–,–,–,–
Cc1cc(O)cc(C)c1C[C@H](N)C(=O)N[C@@H]1CCNc2ccc(CN3CCC4(CCCCC4)CC3)cc21 [Compound 1060],36.5 ± 18.9 nM,2.44 ± 0.99 nM,0.22 ± 0.1 nM,92.1 ± 15.5 nM,71.6 ± 4.38%,–,–,–,–,dns,dns,dns,dns,–,–
Cc1cc(O)cc(C)c1C[C@H](N)C(=O)N[C@@H]1CCNc2ccc(CN3CCc4cccc(C(F)(F)F)c4C3)cc21 [Compound 1061],13.6 ± 1.27 nM,48.5 ± 17.5 nM,0.17 ± 0.03 nM,–,–,–,–,8.88 ± 2.71 nM,37.8 ± 2.55%,dns,dns,–,–,dns,dns
CC(=O)N1CC[C@@H](NC(=O)[C@@H](N)Cc2c(C)cc(O)cc2C)c2cc(CN3CCc4ccc(F)cc4C3)ccc21 [Compound 1062],0.77 ± 0.23 nM,16.2 ± 7.94 nM,0.05 ± 0.01 nM,234 ± 70.1 nM,34.2 ± 8.24%,–,–,23.7 ± 26.7 nM,99.6 ± 1.92%,dns,dns,–,–,–,–
COc1cc(Cc2ccccc2)cc2c1NCC[C@H]2NC(=O)[C@@H](N)Cc1c(C)cc(O)cc1C [Compound 1063],3.08 ± 1 nM,29.9 ± 10.4 nM,0.24 ± 0.11 nM,–,–,63.3 ± 12.2 nM,50.8 ± 9.61%,2.5 ± 0.45 nM,84.1 ± 0.96%,–,–,–,–,dns,dns
Cc1cc(O)cc(C)c1C[C@H](N)C(=O)N[C@@H]1CCNc2ccc(Cc3cc4ccccc4o3)cc21 [Compound 1065],4.76 ± 1.9 nM,41.4 ± 22.4 nM,0.11 ± 0.03 nM,–,–,–,13.9%,1.14 ± 0.49 nM,97.9 ± 1.43%,dns,–,–,–,dns,dns
CC(=O)N1CC[C@@H](NC(=O)[C@@H](N)Cc2c(C)cc(O)cc2C)c2cc(CN3CCc4cccc(C(F)(F)F)c4C3)ccc21 [Compound 1066],3.05 ± 0.88 nM,59.2 ± 12.4 nM,0.16 ± 0.01 nM,–,–,–,–,1.25 ± 0.44 nM,55.1 ± 2.83%,dns,dns,–,–,dns,dns
CC(=O)N1CC[C@@H](NC(=O)[C@@H](N)Cc2c(C)cc(O)cc2C)c2cc(-c3ccccc3)ccc21 [Compound 1067],1.32 ± 0.37 nM,35.8 ± 16.8 nM,0.88 ± 0.4 nM,291 ± 32.5 nM,69.1 ± 5.04%,1520 ± 889 nM,37.4 ± 6.31%,5.64 ± 0.35 nM,51.3 ± 8.48%,–,–,–,–,–,–
Cc1cc(O)cc(C)c1C[C@H](N)C(=O)N[C@@H]1CCNc2ccc(-c3ccccc3)cc21 [Compound 1068],13.4 ± 4.32 nM,165 ± 110 nM,1.11 ± 0.44 nM,933 ± 219 nM,57.1 ± 2.63%,–,–,11.8 ± 5.77 nM,23.7 ± 5.88%,dns,dns,–,–,–,–
Cc1cc(O)cc(C)c1C[C@H](N)C(=O)N[C@@H]1CCN2CCCc3cc(Cc4ccccc4)cc1c32 [Compound 1069],2.26 ± 0.8 nM,6.62 ± 2.57 nM,0.39 ± 0.14 nM,1000 nM,78.4%,570 ± 298 nM,50.4 ± 13.7%,1.12 ± 0.52 nM,95.2 ± 3.99%,–,–,–,–,–,–
COc1cc(Cc2ccccc2)cc2c1N(C(C)=O)CC[C@H]2NC(=O)[C@@H](N)Cc1c(C)cc(O)cc1C [Compound 1076],2.16 ± 1.15 nM,44.8 ± 16.9 nM,0.14 ± 0.01 nM,1480 ± 639 nM,16.1 ± 5.54%,4.62 ± 1.9 nM,44.6 ± 3.75%,0.78 ± 0.2 nM,95.8 ± 10.2%,–,–,–,–,–,–
Cc1cc(O)cc(C)c1C[C@H](N)C(=O)N[C@H]1c2cc(Cc3ccccc3)ccc2NC[C@H]1C [Compound 1078],2.02 ± 0.21 nM,17.7 ± 2.24 nM,0.75 ± 0.03 nM,900 ± 326 nM,26.4 ± 5.75%,30.9 nM,21.4%,3.14 ± 1.51 nM,80.2 ± 7.89%,–,–,–,–,–,–
